Experiments:
Format in all cases: in vivo
Setaria faberi (SETFA) [1] = assay: Post-emergence herbicidal glasshouse test on Setaria faberi; settings: post-emergence; 1000 g/h; evaluated after 13 days
Method in brief: (§1)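 Steps: sow seeds in standard soil; cultivate 1 d (pre-) or 8 d (post-emergence) at 24/16 °C, 14 h light, 65% humidity; spray 1000 g/h in acetone/water plus Tween 20; grow on, watering twice daily; score percentage damage after 13 d.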

[2] = system: Amaranthus retoflexus (AMARE); assay: Post-emergence herbicidal glasshouse test on Amaranthus retoflexus; settings: post-emergence; 1000 g/h; evaluated after 13 days
Method in brief: as §1

Setaria faberi (SETFA) [3] = assay: Pre-emergence herbicidal glasshouse test on Setaria faberi; settings: pre-emergence; 1000 g/h; evaluated after 13 days
Method in brief: as §1

[4] = system: Ipomoea hederacea (IPOHE); assay: Post-emergence herbicidal glasshouse test on Ipomoea hederacea; settings: post-emergence; 1000 g/h; evaluated after 13 days
Method in brief: as §1

[5] = system: Echinochloa crus-galli (ECHCG); assay: Post-emergence herbicidal glasshouse test on Echinochloa crus-galli; settings: post-emergence; 1000 g/h; evaluated after 13 days
Method in brief: as §1

[6] = system: Alopecurus myosuroides (ALOMY); assay: Pre-emergence herbicidal glasshouse test on Alopecurus myosuroides; settings: pre-emergence; 1000 g/h; evaluated after 13 days
Method in brief: as §1

[7] = system: Echinochloa crus-galli (ECHCG); assay: Pre-emergence herbicidal glasshouse test on Echinochloa crus-galli; settings: pre-emergence; 1000 g/h; evaluated after 13 days
Method in brief: as §1

[8] = system: Amaranthus retoflexus (AMARE); assay: Pre-emergence herbicidal glasshouse test on Amaranthus retoflexus; settings: pre-emergence; 1000 g/h; evaluated after 13 days
Method in brief: as §1

Solanum nigrum (SOLNI) [9] = assay: Post-emergence herbicidal glasshouse test on Solanum nigrum; settings: post-emergence; 1000 g/h; evaluated after 13 days
Method in brief: as §1

[10] = system: Alopecurus myosuroides (ALOMY); assay: Post-emergence herbicidal glasshouse test on Alopecurus myosuroides; settings: post-emergence; 1000 g/h; evaluated after 13 days
Method in brief: as §1

[11] = system: Ipomoea hederacea (IPOHE); assay: Pre-emergence herbicidal glasshouse test on Ipomoea hederacea; settings: pre-emergence; 1000 g/h; evaluated after 13 days
Method in brief: as §1

Solanum nigrum (SOLNI) [12] = assay: Pre-emergence herbicidal glasshouse test on Solanum nigrum; settings: pre-emergence; 1000 g/h; evaluated after 13 days
Method in brief: as §1

Compound | POST Application SETFA herbicidal damage (five point scale) (Setaria faberi (SETFA) [1]) | POST Application AMARE herbicidal damage (five point scale) [2] | PRE Application SETFA herbicidal damage (five point scale) (Setaria faberi (SETFA) [3]) | POST Application IPOHE herbicidal damage (five point scale) [4] | POST Application ECHCG herbicidal damage (five point scale) [5] | PRE Application ALOMY herbicidal damage (five point scale) [6] | PRE Application ECHCG herbicidal damage (five point scale) [7] | PRE Application AMARE herbicidal damage (five point scale) [8] | POST Application SOLNI herbicidal damage (five point scale) (Solanum nigrum (SOLNI) [9]) | POST Application ALOMY herbicidal damage (five point scale) [10] | PRE Application IPOHE herbicidal damage (five point scale) [11] | PRE Application SOLNI herbicidal damage (five point scale) (Solanum nigrum (SOLNI) [12])
Cc1c(-c2cnn(C3CCCC3)c(=O)c2O)ccc(S(C)(=O)=O)c1C1=NOCC1 [Compound 1.007] | 4 (4=60-79% damage) | 5 (5=80-100% damage) | 4 (4=60-79% damage) | 4 (4=60-79% damage) | 5 (5=80-100% damage) | 1 (1=0-19% damage) | 4 (4=60-79% damage) | 3 (3=40-59% damage) | 5 (5=80-100% damage) | 4 (4=60-79% damage) | 2 (2=20-39% damage) | 2 (2=20-39% damage)
CCn1ncc(-c2ccc(C(F)(F)F)cc2S(C)(=O)=O)c(O)c1=O [Compound 2.016] | 5 (5=80-100% damage) | 5 (5=80-100% damage) | 5 (5=80-100% damage) | 5 (5=80-100% damage) | 5 (5=80-100% damage) | 5 (5=80-100% damage) | 5 (5=80-100% damage) | 5 (5=80-100% damage) | 5 (5=80-100% damage) | 5 (5=80-100% damage) | 5 (5=80-100% damage) | 5 (5=80-100% damage)
Cn1ncc(-n2ccc(C(F)(F)F)c(-c3cc(F)c(F)c(F)c3)c2=O)c(O)c1=O [Compound 7.017] | 5 (5=80-100% damage) | 5 (5=80-100% damage) | 5 (5=80-100% damage) | 5 (5=80-100% damage) | 5 (5=80-100% damage) | 5 (5=80-100% damage) | 5 (5=80-100% damage) | 5 (5=80-100% damage) | 5 (5=80-100% damage) | 5 (5=80-100% damage) | 4 (4=60-79% damage) | 5 (5=80-100% damage)
Cn1ncc(-c2ccc(F)cc2C(F)(F)F)c(O)c1=O [Compound 1.112] | 1 (1=0-19% damage) | 5 (5=80-100% damage) | 1 (1=0-19% damage) | 4 (4=60-79% damage) | 1 (1=0-19% damage) | 1 (1=0-19% damage) | 1 (1=0-19% damage) | 1 (1=0-19% damage) | 4 (4=60-79% damage) | 1 (1=0-19% damage) | 1 (1=0-19% damage) | 1 (1=0-19% damage)
Cn1ncc(-c2ccc(Cl)cc2Cl)c(O)c1=O [Compound 1.077] | 1 (1=0-19% damage) | 4 (4=60-79% damage) | 1 (1=0-19% damage) | 2 (2=20-39% damage) | 1 (1=0-19% damage) | 1 (1=0-19% damage) | 1 (1=0-19% damage) | 3 (3=40-59% damage) | 2 (2=20-39% damage) | 1 (1=0-19% damage) | 1 (1=0-19% damage) | 3 (3=40-59% damage)
Cn1ncc(-c2ccc(C(F)(F)F)cc2Cl)c(O)c1=O [Compound 1.076] | 1 (1=0-19% damage) | 5 (5=80-100% damage) | 1 (1=0-19% damage) | 4 (4=60-79% damage) | 2 (2=20-39% damage) | 1 (1=0-19% damage) | 1 (1=0-19% damage) | 5 (5=80-100% damage) | 4 (4=60-79% damage) | 2 (2=20-39% damage) | 1 (1=0-19% damage) | 2 (2=20-39% damage)
COc1nn(C)c(=O)c(O)c1-c1ccc(C(F)(F)F)cc1S(C)(=O)=O [Compound 2.041] | 5 (5=80-100% damage) | 5 (5=80-100% damage) | 5 (5=80-100% damage) | 5 (5=80-100% damage) | 5 (5=80-100% damage) | 5 (5=80-100% damage) | 5 (5=80-100% damage) | 5 (5=80-100% damage) | 5 (5=80-100% damage) | 5 (5=80-100% damage) | 5 (5=80-100% damage) | 5 (5=80-100% damage)
Cn1ncc(-c2ccc(Cl)cc2[S+](C)[O-])c(O)c1=O (stereo not drawn) [Compound 1.059] | 5 (5=80-100% damage) | 5 (5=80-100% damage) | 5 (5=80-100% damage) | 5 (5=80-100% damage) | 5 (5=80-100% damage) | 5 (5=80-100% damage) | 5 (5=80-100% damage) | 5 (5=80-100% damage) | 5 (5=80-100% damage) | 5 (5=80-100% damage) | 5 (5=80-100% damage) | 5 (5=80-100% damage)
Cn1ncc(-c2ccc(C(F)(F)F)cc2S(C)(=O)=O)c(O)c1=O [Compound 1.028, 4-hydroxy-2-methyl-5-[2-methylsulfonyl-4-(trifluoromethyl)phenyl]pyridazin-3-one] | 5 (5=80-100% damage) | 5 (5=80-100% damage) | 5 (5=80-100% damage) | 5 (5=80-100% damage) | 5 (5=80-100% damage) | 5 (5=80-100% damage) | 5 (5=80-100% damage) | 5 (5=80-100% damage) | 5 (5=80-100% damage) | 5 (5=80-100% damage) | 5 (5=80-100% damage) | 5 (5=80-100% damage)
